# Laboratory results taken from patent publication US7867978B2, “Methods and compositions for treating neurological disorders” (The University of Kentucky Research Foundation, priority 2007, dated 2011).
# “Also recorded” adds a separate entry of the source. Ends that are not written are not given here.
# Key:
# iNOS [1] = molecular target: T1, iNOS (Homo sapiens, UniProt P35228); assay: iNOS activity in AtT-20 cells stably expressing iNOS, transiently transfected with Kalirin-7, Kalirin domain or section plasmids; format: cell-based, mouse
# T1 construct: expressed in transfected cells
# T1 sequence (P35228 whole entry, species assumed, the tested form may be a part): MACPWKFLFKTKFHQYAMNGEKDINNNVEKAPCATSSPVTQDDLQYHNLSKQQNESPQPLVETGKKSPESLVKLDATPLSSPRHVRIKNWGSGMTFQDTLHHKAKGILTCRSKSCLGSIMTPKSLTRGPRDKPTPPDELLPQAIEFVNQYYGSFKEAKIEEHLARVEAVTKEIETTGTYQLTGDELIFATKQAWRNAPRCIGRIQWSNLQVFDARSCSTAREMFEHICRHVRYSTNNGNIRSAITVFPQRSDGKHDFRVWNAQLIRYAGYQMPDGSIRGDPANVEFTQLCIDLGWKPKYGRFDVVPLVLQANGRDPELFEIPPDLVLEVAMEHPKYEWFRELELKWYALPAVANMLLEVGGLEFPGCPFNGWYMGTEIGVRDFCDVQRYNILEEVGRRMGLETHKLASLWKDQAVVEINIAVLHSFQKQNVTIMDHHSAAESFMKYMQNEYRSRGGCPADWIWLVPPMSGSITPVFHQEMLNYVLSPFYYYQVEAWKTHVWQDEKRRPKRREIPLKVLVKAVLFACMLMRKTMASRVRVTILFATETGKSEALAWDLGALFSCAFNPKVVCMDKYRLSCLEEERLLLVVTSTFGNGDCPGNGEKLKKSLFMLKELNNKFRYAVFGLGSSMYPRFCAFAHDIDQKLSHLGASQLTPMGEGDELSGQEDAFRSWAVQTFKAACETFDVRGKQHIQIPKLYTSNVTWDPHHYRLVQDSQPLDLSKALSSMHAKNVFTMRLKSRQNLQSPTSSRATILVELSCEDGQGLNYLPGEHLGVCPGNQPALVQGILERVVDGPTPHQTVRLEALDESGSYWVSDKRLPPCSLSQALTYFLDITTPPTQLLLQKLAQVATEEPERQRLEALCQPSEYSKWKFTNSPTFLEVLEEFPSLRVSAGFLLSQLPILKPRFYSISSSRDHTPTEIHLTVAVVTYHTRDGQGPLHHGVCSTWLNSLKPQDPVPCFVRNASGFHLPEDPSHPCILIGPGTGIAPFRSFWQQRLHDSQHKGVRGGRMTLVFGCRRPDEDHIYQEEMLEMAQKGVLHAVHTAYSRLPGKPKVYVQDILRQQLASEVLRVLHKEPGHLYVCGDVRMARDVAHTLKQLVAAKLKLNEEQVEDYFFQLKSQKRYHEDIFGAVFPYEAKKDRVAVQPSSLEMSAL
# Experimental: Assays for iNOS and NOS-The hippocampal and cerebellar specimens and the transfected cells were homogenized in 50 mM Tris HCl (pH 7.4), 1 mM EDTA, 0.1 mM tetrahydrobiopterin, 2 mM dithiothreitol, 10% (v/v) glycerol, aprotinin (25 μg/ml), leupeptin (25 μg/ml), 100 μM PMSF, 10 μM FMN, and 10 μM FAD. […] The collective activity of NOS (including eNOS, nNOS and iNOS) was determined in an identical fashion to iNOS activity, but in the presence of 1.25 mM Ca^2+. Cell culture and transfection-AtT-20 cells (ATCC# CCL-89), SH-SY5Y cells (ATCC# CRL-2266), C6 cells (ATCC# CCL-107) and Neuro-2A cells (ATCC # CCL-131) were cultured according to the supplier's instructions. Each cell line was grown in a 25 cm^2 flask, stably transfected with pcDNA4 vector carrying […]-7 or pcDNA3 carrying iNOS, using SuperFect transfection reagents (Qiagen) following the manufacture's instructions. Stable cell lines were selected using 0.5 mg/ml of G-418 for pcDNA3 or 0.12 μg/ml of zeocin for pcDNA4. To induce the iNOS activity, cell lines were transfected with iNOS in pcDNA3 or stimulated with 3 μg/ml of lipopolysaccharides (LPS) for 12-16 h (27) or 10 μM A β1-42 peptide for 18 h. Two different approaches of double transfection with […]-7 and iNOS were used to determine the effects of […]-7 on iNOS. The cell line stably expressing […]-7 was transiently transfected with iNOS, and conversely, the cell line stably expressing iNOS was transiently transfected with increasing amounts of pcDNA4 carrying […]-7 or […] domains.
# iNOS [2] = assay: iNOS activity in cell lines stably transfected with Kalirin-7, iNOS induced by iNOS plasmid, LPS or LPS plus Aβ1-42; format: cell-based; details: for iNOS activity: AtT20, SH-SY5Y, Neuro2A and C6 cell lines, iNOS raised by iNOS plasmid, LPS, or LPS plus Aβ1-42, Canavanine or L-NAME 10 mM; for Aβ1-42-augmented iNOS activity: LPS plus Aβ1-42 treated cell lines
# Experimental: Assays for iNOS and NOS—The hippocampal and cerebellar specimens and the transfected cells were homogenized in 50 mM Tris HCl (pH 7.4), 1 mM EDTA, 0.1 mM tetrahydrobiopterin, 2 mM dithiothreitol, 10% (v/v) glycerol, aprotinin (25 μg/ml), leupeptin (25 μg/ml), 100 μM PMSF, 10 μM FMN, and 10 μM FAD. The homogenates were centrifuged at 2,000×g for 15 min, and the supernatants were assayed for iNOS. iNOS was also assayed in the presence of 10 mM Canavanine (Sigma) or L-NAME (Sigma). The collective activity of NOS (including eNOS, nNOS and iNOS) was determined in an identical fashion to iNOS activity, but in the presence of 1.25 mM Ca^2+.
# Preparation of Aβ1-42 peptide—One mM of A β1-42 (Biosource) was prepared in a capped vial at 37° C. for 5 days, and stored at −20° C. The frozen stock solution was diluted and used at the final concentration of 10 μM.
# Cell culture and transfection—AtT-20 cells (ATCC# CCL-89), SH-SY5Y cells (ATCC# CRL-2266), C6 cells (ATCC# CCL-107) and Neuro-2A cells (ATCC # CCL-131) were cultured according to the supplier's instructions. Each cell line was grown in a 25 cm^2 flask, stably transfected with pcDNA4 vector carrying Kalirin-7 or pcDNA3 carrying iNOS, using SuperFect transfection reagents (Qiagen) following the manufacture's instructions. Stable cell lines were selected using 0.5 mg/ml of G-418 for pcDNA3 or 0.12 μg/ml of zeocin for pcDNA4.
# To induce the iNOS activity, cell lines were transfected with iNOS in pcDNA3 or stimulated with 3 μg/ml of lipopolysaccharides (LPS) for 12-16 h (27) or 10 μM A β1-42 peptide for 18 h. Two different approaches of double transfection with Kalirin-7 and iNOS were used to determine the effects of Kalirin-7 on iNOS. The cell line stably expressing Kalirin-7 was transiently transfected with iNOS, and conversely, the cell line stably expressing iNOS was transiently transfected with increasing amounts of pcDNA4 carrying Kalirin-7 or Kalirin domains.
# iNOS [3] = molecular target: T1, iNOS; assay: Co-immunoprecipitation of iNOS with Kalirin-7 by anti-Kalirin in co-transfected AtT-20 cells; format: binding; details: increasing amounts of Kalirin-7 plasmid
# Experimental: Immunoblot and immunoprecipitation—Proteins were extracted. Brain samples were directly solubilized in 10 volume of lysis buffer (50 mM Tris HCl at pH 7.5, 120 mM NaCl, 5 mM EDTA, 1% Nonidet P-40 (0.3 mg/ml), 8 μg/ml aprotinin, 2 μg/ml pepstatin A, 2 μg/ml leupeptin, 1 mM Na3VO4, 50 mM NaF and 0.2% of SDS) using Omni 2000 homogenizer (Omni International Inc). The solubilized samples were centrifuged at 15,000×g for 10 min, the supernatants were saved, and protein concentration was measured by the Bradford method. Cultured cells were suspended in another lysis buffer consisting of 100 mM Tris HCl (pH7.5), 150 mM NaCl, 2 mM EDTA, 0.5% of Triton X-100, 1 mM PMSF, 4 μg/ml aprotinin, 1 μg/ml pepstatin A, 1 μg/ml leupeptin, 1 mM Na3VO4, 50 mM NaF and 0.2% of SDS), and processed.
# An equal protein-amount of solubilized supernatants was resolved by SDS-PAGE and blotted onto polyvinylidene difluoride membrane. The membranes were incubated for 1 h in blocking solution containing 3% bovine serum albumin. The membranes were incubated for 1 h with primary antibodies diluted 1:500 in Tris-buffered saline containing 0.1% Tween 20. After washing, membranes were incubated for 1 h in 1:10,000 dilution of secondary antibodies coupled to horseradish peroxidase. […] Blots were scanned, and the band intensity was digitized and quantified using Molecular Dynamics Image Quant 5.1. […]
# [4] = tested on: AtT-20 cells stably expressing iNOS; assay: Renilla luciferase assay as transfection reference for toxic effect of plasmid DNA; format: cell-based, mouse; details: increasing plasmid amounts co-transfected with constant pRL-TK vector
# Experimental: To test the putative toxic effect of high concentrations of plasmid DNA, up to 2.5 μg, the Renilla luciferase assay (Promega) was used as a transfection reference. The AtT-20 cells stably expressing iNOS were transiently transfected with a constant amount of the pRL-TK vector (Promega) carrying Renilla luciferase and increasing amounts of the Kalirin plasmid. The co-transfected cells were assayed for iNOS and luciferase following the manufacturer's instructions.
compound,measurement,setting,value
"D2: Kalirin domain consisting of the 354 amino acid V506-Q860 sequence of SEQ ID NO:2, expressed from pcDNA4",iNOS activity,iNOS [1]; transient transfection with pcDNA4 carrying individual Kalirin-7 domains,attenuated; also recorded: most notably attenuated
N=C(N)NOCC[C@H](N)C(=O)O [Canavanine],iNOS activity,iNOS [2],suppressed to basal levels
same,Aβ1-42-augmented iNOS activity,iNOS [2],attenuated
KAARHLEVRIQDFVRRVEQRKLLLDMSVSFHTH (also: Flag epitope tag; listed as Homo sapiens) [section # 8],suppression of iNOS versus plasmid concentration,iNOS [1]; increasing amounts of Kalirin section 8 plasmid,dependent on the concentration
same,iNOS suppression,"iNOS [1]; transient transfection with pcDNA4 carrying individual 33 amino acid sections, compared with D2 and wild type Kalirin 7",suppressed most effectively
COC(=O)[C@@H](N)CCCNC(=N)N[N+](=O)[O-] [L-NAME],iNOS activity,iNOS [2],suppressed to basal levels
same,Aβ1-42-augmented iNOS activity,iNOS [2],attenuated
"Aβ1-42: amyloidogenic peptide Aβ1-42 (Biosource), used at 10 μM",iNOS activity induced by LPS treatment,"iNOS [2]; LPS plus 10 μM Aβ1-42, stable cell lines",augments iNOS activity
"Kalirin-7: cytoplasmic protein of >1,660 amino acids (SEQ ID NO:2), expressed from pcDNA4 carrying the Kalirin-7 cDNA",iNOS activity,iNOS [1]; increasing amounts of pcDNA4 Kalirin-7 vector,decreased
same,iNOS activity,iNOS [2],suppressed to basal levels
same,Aβ1-42-augmented iNOS activity,iNOS [2],attenuated
same,iNOS co-immunoprecipitated by anti-Kalirin,iNOS [3],increasing concentrations of iNOS were co-immunoprecipitated
same,synthesis and activity of Renilla luciferase (putative toxic effect of plasmid),[4],did not impair
